Laboratory results reported in patent US12716050B2, “Two methods for preparing universal microbial medium by eutectic system-based cellulose liquefaction” (Xinjiang University, priority 2021, dated 2026).
Like-named read-outs stand apart in the source and are kept apart here.

Tests used:
[1] = Screening of ionic liquids for dissolving microcrystalline cellulose; format: physicochemical
Escherichia coli = conditions: LB solid medium, 48 h
Excerpt: Therefore, a purpose of this example is to screen a concentration range of the ionic liquid contained in the medium.

[2] = No. 8: 10 g IL, 1 g microcrystalline cellulose, 90° C., co-heated
[3] = No. 11: 5 g IL, 3 g microcrystalline cellulose, 90° C., co-heated
[4] = No. 3: 5 g IL, 3 g microcrystalline cellulose, 90° C., co-heated

C=CCn1cc[n+](C)c1.[Cl-] [1-allyl-3-methylimidazolium chloride]
Conclusion (dissolution effect of microcrystalline cellulose) [1, 2]: desirable
Dissolution time [1, 2]: 40 min
Conclusion (dissolution effect of microcrystalline cellulose) ([1]; No. 9: 5 g IL, 1 g microcrystalline cellulose, IL heated to 100° C.): common
Dissolution time ([1]; No. 9: 5 g IL, 1 g microcrystalline cellulose, IL heated to 100° C., cellulose added): 20 min
Conclusion (dissolution effect of microcrystalline cellulose) ([1]; No. 10: 5 g IL, 2 g microcrystalline cellulose, 100° C., soaked in IL for 20 h, co-heated): common
Dissolution time ([1]; No. 10: 5 g IL, 2 g microcrystalline cellulose, 100° C., soaked in IL for 20 h, co-heated in water bath): 10 min
Conclusion (dissolution effect of microcrystalline cellulose) [1, 3]: has a poor
Dissolution time [1, 3]: 240 min

CCCCn1cc[n+](C)c1.[Cl-] [1-butyl-3-methylimidazolium chloride]
Conclusion (dissolution effect of microcrystalline cellulose) ([1]; No. 1: 10 g IL, 1 g microcrystalline cellulose, 90° C., co-heated): desirable
Dissolution time ([1]; No. 1: 10 g IL, 1 g microcrystalline cellulose, 90° C., co-heated, stirred 20 sec every 5 min): 40 min
Conclusion (dissolution effect of microcrystalline cellulose) ([1]; No. 2: 5 g IL, 3 g microcrystalline cellulose, 110° C., IL preheated to liquid state): desirable
Dissolution time ([1]; No. 2: 5 g IL, 3 g microcrystalline cellulose, 110° C., IL preheated to liquid state, mixed by stirring): 1 min
Conclusion (dissolution effect of microcrystalline cellulose) [1, 4]: common
Dissolution time [1, 4]: 240 min
Effect in pretreatment of cellulose ([1]; overall conclusion of Example 1): could well process the cellulose
Ionic liquid concentration at which the growth of Escherichia coli is inhibited (Escherichia coli): not less than 3%
Growth state of strains (Escherichia coli; ionic solution concentration 1%): Normal
Growth state of strains (Escherichia coli; ionic solution concentration 3%): Slightly inhibited
Growth state of strains (Escherichia coli; ionic solution concentration 4%): Inhibited growth
Growth state of strains (Escherichia coli; ionic solution concentration 5%): Inhibited growth
Growth state of strains (Escherichia coli; ionic solution concentration 6%): No growth
Growth state of strains (Escherichia coli; ionic solution concentration 7%): No growth
Conclusion (dissolution effect) (Treatment 1: 10 g IL, 1 g microcrystalline cellulose, co-heated to 90° C., repeated): Poor
Conclusion (dissolution effect) (Treatment 2: 10 g IL, 1 g cellulose, IL heated to 90° C., heating to 90° C. repeated): Common
Conclusion (dissolution effect) (Treatment 3: 10 g IL, 1 g cellulose, IL heated to 90° C., heating to 100° C. repeated): Common
Conclusion (dissolution effect) (Treatment 4: 10 g IL, 1 g cellulose, IL heated to 90° C., heating to 110° C. repeated): Common
Conclusion (dissolution effect) (Treatment 5: 10 g IL, 1 g cellulose, IL heated to 90° C., heating to 120° C. repeated): Common
Conclusion (dissolution effect) (Treatment 6: 10 g IL, 1 g cellulose, 90° C., 120° C., heating to 180° C. repeated): Desirable
Conclusion (dissolution effect) (Treatment 7: 8 g IL, 1 g cellulose, 90° C., 120° C., heating to 180° C. repeated): Desirable
Conclusion (dissolution effect) (Treatment 8: 5 g IL, 1 g cellulose, 90° C., 180° C., heating to 180° C. repeated): Desirable
Conclusion (dissolution effect) (Treatment 9: 5 g IL, 1.5 g cellulose, 90° C., 120° C., heating to 180° C. repeated): Desirable
Conclusion (dissolution effect) (Treatment 10: 5 g IL, 2 g cellulose, 90° C., 120° C., heating to 180° C. repeated): Desirable
Conclusion (dissolution effect) (Treatment 11: 5 g IL, 2.5 g cellulose, 90° C., 120° C., heating to 180° C. repeated): Desirable
